Data published in ChEMBL document CHEMBL1201862, “PubChem BioAssay data set” (2004).
Activity calls are given as the source filed them.

Experiments:
[1] = target: T1, DNA repair protein RAD52 homolog (Homo sapiens, UniProt P43351); format: functional, biochemical
T1 sequence (P43351 whole entry): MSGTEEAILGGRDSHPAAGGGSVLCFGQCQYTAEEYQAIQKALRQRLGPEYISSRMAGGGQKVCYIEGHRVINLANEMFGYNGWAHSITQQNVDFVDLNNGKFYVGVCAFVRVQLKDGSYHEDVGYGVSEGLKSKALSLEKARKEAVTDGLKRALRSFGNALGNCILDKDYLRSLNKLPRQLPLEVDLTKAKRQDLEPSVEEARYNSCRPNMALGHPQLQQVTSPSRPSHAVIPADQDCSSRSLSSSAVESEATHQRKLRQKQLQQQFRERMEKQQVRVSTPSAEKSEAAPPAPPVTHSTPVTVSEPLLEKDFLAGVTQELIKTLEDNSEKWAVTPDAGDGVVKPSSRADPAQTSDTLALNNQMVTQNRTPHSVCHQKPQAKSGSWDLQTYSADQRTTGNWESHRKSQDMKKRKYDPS

[2] = target: Delta-type opioid receptor (Homo sapiens, UniProt P41143); test: Counterscreen for agonists of heterodimerization of the mu 1 (OPRM1) and delta 1 (OPRD1) opioid receptors: Luminescence-based cell-based high throughput dose response assay to identify agonists of OPRD1 homodimerization. [Related pubchem assays (depositor defined):AID504326, AID504355, AID504692, AID504904, AID504905]; format: functional
[3] = target: 5-hydroxytryptamine receptor 5A (Homo sapiens, UniProt P47898); test: Counterscreen for agonists of OPRM1-OPRD1 heterodimerization: luminescence-based cell-based high throughput dose response assay to identify agonists of 5-hydroxytryptamine (serotonin) 5A receptor (HTR5A). [Related pubchem assays (depositor defined):AID504326, AID504355, AID504692, AID504904, AID504905]; format: functional
[4] = target: Mu-type opioid receptor (Homo sapiens, UniProt P35372); test: Counterscreen for agonists of heterodimerization of the mu 1 (OPRM1) and delta 1 (OPRD1) opioid receptors: Luminescence-based cell-based high throughput dose response assay to identify agonists of OPRM1 homodimerization.; format: functional;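 also: U2OS cells expressing OPRM1 and beta-arrestin as split beta-galactosidase partners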
[5] = target: Hexokinase-1 (Homo sapiens, UniProt P19367); test: HK1 enzyme inhibition by HKDC1 hits, SAR follow-up, selectivity assay for HKDC1 inhibitor project, biochemical, set 2, resazurin fluorescence coupled readout (AID 588356); format: functional
[6] = target: T2, Hexokinase HKDC1 (Homo sapiens, UniProt Q2TB90); test: HKDC1 hexokinase inhibitors, SAR follow-up, biochemical, set 2 (AID 588355); format: functional
T2 sequence (Q2TB90 whole entry): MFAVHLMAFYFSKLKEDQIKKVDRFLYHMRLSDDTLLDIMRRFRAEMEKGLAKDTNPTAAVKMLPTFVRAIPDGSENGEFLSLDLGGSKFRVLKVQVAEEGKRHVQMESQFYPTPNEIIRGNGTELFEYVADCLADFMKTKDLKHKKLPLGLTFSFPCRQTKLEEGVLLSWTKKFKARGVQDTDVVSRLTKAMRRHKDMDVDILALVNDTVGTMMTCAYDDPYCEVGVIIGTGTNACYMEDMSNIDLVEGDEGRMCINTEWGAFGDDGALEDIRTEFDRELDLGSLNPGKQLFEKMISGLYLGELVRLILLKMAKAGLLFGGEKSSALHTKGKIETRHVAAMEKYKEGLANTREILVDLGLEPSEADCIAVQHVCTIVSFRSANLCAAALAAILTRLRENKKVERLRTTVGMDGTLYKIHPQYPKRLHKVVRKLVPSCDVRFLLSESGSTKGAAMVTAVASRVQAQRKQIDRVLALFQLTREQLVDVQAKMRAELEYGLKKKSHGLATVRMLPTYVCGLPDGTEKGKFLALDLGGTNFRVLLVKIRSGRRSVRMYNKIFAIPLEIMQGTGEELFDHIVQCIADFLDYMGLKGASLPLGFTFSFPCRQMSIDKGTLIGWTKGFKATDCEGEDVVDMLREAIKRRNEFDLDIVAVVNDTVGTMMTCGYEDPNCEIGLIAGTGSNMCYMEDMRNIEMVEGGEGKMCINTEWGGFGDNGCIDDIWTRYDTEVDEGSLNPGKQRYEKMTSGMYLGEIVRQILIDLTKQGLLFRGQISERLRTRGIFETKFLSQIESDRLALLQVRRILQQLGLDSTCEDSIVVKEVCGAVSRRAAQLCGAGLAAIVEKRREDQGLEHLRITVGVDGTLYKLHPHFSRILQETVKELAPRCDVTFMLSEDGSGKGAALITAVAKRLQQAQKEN

[7] = tested on: Escherichia coli; test: microbe, parasite or virus in culture
[8] = target: T3, Cytochrome P450 1A2 (Homo sapiens, UniProt P05177);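 also: PubChem cytochrome P450 panel assay, CYP1A2 panel member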
T3 sequence (P05177 whole entry): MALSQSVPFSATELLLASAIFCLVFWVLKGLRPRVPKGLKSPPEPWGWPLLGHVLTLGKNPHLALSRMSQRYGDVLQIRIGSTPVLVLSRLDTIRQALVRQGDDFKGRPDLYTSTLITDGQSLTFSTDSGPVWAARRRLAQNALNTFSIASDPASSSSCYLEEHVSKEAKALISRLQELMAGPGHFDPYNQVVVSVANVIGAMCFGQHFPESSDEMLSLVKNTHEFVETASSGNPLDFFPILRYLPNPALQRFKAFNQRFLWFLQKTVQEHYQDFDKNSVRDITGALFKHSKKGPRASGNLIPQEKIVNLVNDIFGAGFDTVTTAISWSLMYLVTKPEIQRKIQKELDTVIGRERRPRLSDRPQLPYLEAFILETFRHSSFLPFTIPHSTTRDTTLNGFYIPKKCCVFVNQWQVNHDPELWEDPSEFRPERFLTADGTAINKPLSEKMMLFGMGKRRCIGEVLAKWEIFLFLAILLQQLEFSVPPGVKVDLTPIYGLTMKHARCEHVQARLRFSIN

[9] = target: Cytochrome P450 2C19 (Homo sapiens, UniProt P33261); test: Cytochrome panel assay with activity outcomes. Panel member name: p450-cyp2c19 Compounds with AC50 equal or less than 10 uM are considered active; format: functional; conditions: read-out: AC50
[10] = target: Voltage-gated inwardly rectifying potassium channel KCNH2 (Homo sapiens, UniProt Q12809); conditions: Potency;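 also: confirmatory quantitative high-throughput screen measuring inhibition of hERG channel activity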
Voltage-gated inwardly rectifying potassium channel KCNH2, sequence (Q12809 whole entry): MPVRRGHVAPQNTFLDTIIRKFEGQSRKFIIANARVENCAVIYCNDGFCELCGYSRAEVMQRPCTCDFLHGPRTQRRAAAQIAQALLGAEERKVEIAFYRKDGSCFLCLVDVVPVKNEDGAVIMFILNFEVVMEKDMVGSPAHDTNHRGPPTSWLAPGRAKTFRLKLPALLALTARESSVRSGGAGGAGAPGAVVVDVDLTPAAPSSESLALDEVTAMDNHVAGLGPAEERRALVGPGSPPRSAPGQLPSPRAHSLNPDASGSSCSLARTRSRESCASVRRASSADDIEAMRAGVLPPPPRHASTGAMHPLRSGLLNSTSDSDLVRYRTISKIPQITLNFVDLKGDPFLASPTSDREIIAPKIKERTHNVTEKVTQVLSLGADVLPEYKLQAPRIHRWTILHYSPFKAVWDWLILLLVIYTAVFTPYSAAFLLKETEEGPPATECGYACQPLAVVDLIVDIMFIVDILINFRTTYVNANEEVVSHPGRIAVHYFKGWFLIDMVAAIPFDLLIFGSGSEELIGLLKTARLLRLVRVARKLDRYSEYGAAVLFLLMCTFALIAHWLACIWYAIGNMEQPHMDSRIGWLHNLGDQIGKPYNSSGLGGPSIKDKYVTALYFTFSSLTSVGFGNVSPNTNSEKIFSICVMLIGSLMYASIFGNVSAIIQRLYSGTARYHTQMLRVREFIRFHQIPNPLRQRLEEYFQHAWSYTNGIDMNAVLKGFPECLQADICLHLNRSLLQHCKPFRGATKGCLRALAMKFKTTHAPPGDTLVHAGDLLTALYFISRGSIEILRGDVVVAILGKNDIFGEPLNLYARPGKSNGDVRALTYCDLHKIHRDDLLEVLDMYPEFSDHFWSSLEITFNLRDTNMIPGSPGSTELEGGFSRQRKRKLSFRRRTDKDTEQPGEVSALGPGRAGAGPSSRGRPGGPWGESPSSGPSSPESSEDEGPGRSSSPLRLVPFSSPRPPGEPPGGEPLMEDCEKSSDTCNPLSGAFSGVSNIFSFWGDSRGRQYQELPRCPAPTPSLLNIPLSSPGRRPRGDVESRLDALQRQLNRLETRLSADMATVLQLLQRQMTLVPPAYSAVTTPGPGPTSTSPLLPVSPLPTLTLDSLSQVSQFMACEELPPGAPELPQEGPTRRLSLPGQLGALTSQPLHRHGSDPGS

Cytochrome P450 2C19, sequence (P33261 whole entry): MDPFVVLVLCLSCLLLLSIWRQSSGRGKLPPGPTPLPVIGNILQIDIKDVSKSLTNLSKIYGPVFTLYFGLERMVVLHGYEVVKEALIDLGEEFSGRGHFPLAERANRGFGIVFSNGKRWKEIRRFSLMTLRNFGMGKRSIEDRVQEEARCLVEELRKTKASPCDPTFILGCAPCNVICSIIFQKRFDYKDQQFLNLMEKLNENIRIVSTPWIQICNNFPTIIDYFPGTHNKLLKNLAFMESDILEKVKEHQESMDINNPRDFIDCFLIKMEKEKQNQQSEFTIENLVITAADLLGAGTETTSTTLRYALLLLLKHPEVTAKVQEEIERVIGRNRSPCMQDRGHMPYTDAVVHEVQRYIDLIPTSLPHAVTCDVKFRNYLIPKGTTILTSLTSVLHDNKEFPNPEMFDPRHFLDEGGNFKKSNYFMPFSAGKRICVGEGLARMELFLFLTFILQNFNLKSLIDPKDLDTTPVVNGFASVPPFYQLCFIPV
Mu-type opioid receptor, sequence (P35372 whole entry): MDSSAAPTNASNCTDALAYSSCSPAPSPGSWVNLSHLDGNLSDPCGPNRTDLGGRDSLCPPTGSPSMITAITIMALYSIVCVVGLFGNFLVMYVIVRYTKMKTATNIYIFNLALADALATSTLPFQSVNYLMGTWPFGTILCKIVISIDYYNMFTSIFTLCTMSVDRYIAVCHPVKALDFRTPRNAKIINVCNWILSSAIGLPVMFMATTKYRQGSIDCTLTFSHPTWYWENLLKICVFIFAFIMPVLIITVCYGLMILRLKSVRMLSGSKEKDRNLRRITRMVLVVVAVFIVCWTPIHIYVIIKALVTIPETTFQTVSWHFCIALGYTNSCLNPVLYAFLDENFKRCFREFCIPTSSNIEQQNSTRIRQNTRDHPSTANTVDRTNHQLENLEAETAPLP
Hexokinase-1, sequence (P19367 whole entry): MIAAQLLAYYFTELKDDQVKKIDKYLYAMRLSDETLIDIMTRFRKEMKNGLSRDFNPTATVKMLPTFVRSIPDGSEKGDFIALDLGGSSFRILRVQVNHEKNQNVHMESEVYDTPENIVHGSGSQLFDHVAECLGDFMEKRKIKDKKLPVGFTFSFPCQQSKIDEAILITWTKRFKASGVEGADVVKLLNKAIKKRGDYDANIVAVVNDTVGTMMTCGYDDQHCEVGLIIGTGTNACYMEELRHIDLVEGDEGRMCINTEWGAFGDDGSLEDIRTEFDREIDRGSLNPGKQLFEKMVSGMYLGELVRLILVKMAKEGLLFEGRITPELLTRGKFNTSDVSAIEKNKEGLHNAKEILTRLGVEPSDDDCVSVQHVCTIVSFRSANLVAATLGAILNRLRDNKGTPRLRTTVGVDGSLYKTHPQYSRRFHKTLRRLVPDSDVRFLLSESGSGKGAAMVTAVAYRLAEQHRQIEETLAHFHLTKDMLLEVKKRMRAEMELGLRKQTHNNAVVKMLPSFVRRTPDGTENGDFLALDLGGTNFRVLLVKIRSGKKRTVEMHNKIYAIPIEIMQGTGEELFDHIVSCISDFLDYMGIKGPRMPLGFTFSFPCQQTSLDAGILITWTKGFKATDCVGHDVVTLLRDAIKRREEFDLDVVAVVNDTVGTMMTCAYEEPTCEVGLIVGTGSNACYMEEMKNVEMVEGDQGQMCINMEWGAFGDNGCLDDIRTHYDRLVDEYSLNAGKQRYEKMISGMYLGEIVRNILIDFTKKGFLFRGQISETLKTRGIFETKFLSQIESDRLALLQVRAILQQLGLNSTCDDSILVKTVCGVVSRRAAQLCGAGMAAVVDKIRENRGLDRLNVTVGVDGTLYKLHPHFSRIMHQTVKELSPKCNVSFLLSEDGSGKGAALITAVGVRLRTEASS
5-hydroxytryptamine receptor 5A, sequence (P47898 whole entry): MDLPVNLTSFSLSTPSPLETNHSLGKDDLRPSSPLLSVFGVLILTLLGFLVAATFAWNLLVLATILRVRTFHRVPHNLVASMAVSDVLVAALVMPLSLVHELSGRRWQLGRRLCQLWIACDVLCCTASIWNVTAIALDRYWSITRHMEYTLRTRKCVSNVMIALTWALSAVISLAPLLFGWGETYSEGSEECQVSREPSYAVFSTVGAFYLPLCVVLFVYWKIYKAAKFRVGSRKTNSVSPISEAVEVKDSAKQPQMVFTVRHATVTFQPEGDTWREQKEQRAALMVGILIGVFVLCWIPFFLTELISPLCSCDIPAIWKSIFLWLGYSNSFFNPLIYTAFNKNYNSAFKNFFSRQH
Delta-type opioid receptor, sequence (P41143 whole entry): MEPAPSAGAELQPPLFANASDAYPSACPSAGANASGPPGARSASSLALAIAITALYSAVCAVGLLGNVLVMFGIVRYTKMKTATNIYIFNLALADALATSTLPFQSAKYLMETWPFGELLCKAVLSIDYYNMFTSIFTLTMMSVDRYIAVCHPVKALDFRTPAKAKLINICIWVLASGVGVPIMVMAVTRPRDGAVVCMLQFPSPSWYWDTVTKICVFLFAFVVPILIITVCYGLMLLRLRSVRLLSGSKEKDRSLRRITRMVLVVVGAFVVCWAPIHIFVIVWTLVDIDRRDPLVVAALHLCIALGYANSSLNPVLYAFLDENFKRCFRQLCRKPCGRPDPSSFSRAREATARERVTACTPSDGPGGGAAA

With `CN(C)CCCN(C(=O)c1ccc(Br)s1)c1nc2cc3c(cc2s1)OCCO3` the AC50 [1] was 21.1 µM (active), the EC50 [2] was > 92.5 µM (inactive) and the EC50 [3] was > 92.5 µM (inactive). For the same molecule, the EC50 [4] was > 92.5 µM (inactive).

In the case of `Cc1ccccc1N1C(=O)c2ccccc2C1Nc1ccccc1` (stereo not given), the IC50 [5] was > 80 µM (inactive) and the IC50 [6] was > 80 µM (inactive).

With `O=[N+]([O-])c1cccc(COc2cccc(CN3CCCCC3)c2)c1` the AC50 [7] was 21.2 µM (active).

For `COc1ccc2c(c1)c(CC(=O)N1CCOCC1)c(C)n2C(=O)c1ccc(Cl)cc1` [INDOMETHACIN MORPHOLINYLAMIDE], the AC50 [8] was 25.1 µM (inconclusive), the AC50 [9] was 1.58 µM (inconclusive) and the AC50 [10] was 35.5 µM (inconclusive).
